Like-named read-outs stand apart in the source and are kept apart here.
Columns and labels:
[1] = biological target: T1, CDK4/CyclinD1 (Homo sapiens, UniProt P11802); assay: Assay for inhibition of CDK4/CyclinD1 (Caliper microfluidic kinase assay); format: biochemical
T1 construct: purchased Thermofisher PR8064A
Procedure: (§1) The CDK4 enzyme assay for IC50 determination was performed as follows. Microfluidic kinase detection technology (Caliper) was used to monitor the phosphorylation of peptide substrate by CDK4/CyclinD1. The total reaction volume was 15 μL containing buffer A (100 mM HEPES (pH 7.5), 0.1% BSA, 0.01% Triton X-100, 1 mM DTT, 10 mM MgCl2, 10 μM Sodium Orthovanadate, 10 μM Beta-Glycerophosphate), 200 μM ATP, 1 nM CDK4/CyclinD1 (Thermofisher, PR8064A), 1 μM FL-34 (5-FAM-[…]), and the test compound at appropriate dilutions in DMSO. All components were added to the 384-well plate (Corning, 4514), and incubated at Room Temperature for 3 hours. The reaction was terminated by addition of 15 μL Stop Buffer (180 mM HEPES (pH 7.5), 20 mM EDTA, Coating-3 reagent (PerkinElmer, 760050)). The plate was then loaded on Caliper EZ Reader (EZ Reader II, PerkinElmer, HD-4HYSG2772), and the reaction mixtures including substrate and product were sipped into the microfluidic chip for separation and detection. The IC50 values of the test compound were determined by fitting the inhibition curves by 4 parameter sigmoidal dose-response model using the Xlfit5/GraphPad Prism 5 software.

[2] = biological target: T2, CDK6/CyclinD3 (Homo sapiens, UniProt Q00534); assay: Assay for inhibition of CDK6/CyclinD3 (Caliper microfluidic kinase assay); format: biochemical
T2 construct: purchased Carna 04-107
Procedure: as §1, with “The CDK6” for “The CDK4”, “by CDK6/CyclinD3.” for “by CDK4/CyclinD1.”, “volume is” for “volume was”, “Beta-Glycerophosphate), 300” for “Beta-Glycerophosphate), 200”, “ATP, 2” for “ATP, 1”, “nM CDK6/CyclinD3 (Carna, 04-107),” for “nM CDK4/CyclinD1 (Thermofisher, PR8064A),”

[3] = biological target: T3, CDK2/CyclinE1 (Homo sapiens, UniProt P24941); assay: Assay for inhibition of CDK2/CyclinE1 (Caliper microfluidic kinase assay); format: biochemical; settings: read-out: CDK2 IC50
T3 construct: purchased SignalChem C29-18G
Procedure: The CDK2 enzyme assay for IC50 determination was performed as follows. Microfluidic kinase detection technology (Caliper) was used to monitor the phosphorylation of peptide substrate by CDK2/CyclinE1. The total reaction volume was 15 μL containing buffer A (100 mM HEPES (pH 7.5), 0.1% BSA, 0.01% Triton X-100, 1 mM DTT, 10 mM MgCl2, 10 μM Sodium Orthovanadate, 10 μM Beta-Glycerophosphate), 100 μM ATP, 5 nM CDK2/CyclinE1 (SignalChem, C29-18G), 5 μM FL-18 (5-FAM-QSPKKG-NH2), and the test compound at appropriate dilutions in DMSO. All components were added to the 384-well plate (Corning, 4514), and incubate at Room Temperature for 3 hours. The reaction was terminated by addition of 15 μL Stop Buffer (180 mM HEPES (pH 7.5), 20 mM EDTA, Coating-3 reagent (PerkinElmer, 760050)). The plate was loaded on Caliper EZ Reader (EZ Reader II, PerkinElmer, HD-4HYSG2772), and the reaction mixtures including substrate and product were sipped into the microfluidic chip for separation and detection. The IC50 values of the test compound were determined by fitting the inhibition curves by 4 parameter sigmoidal dose-response model using the Xlfit5/GraphPad Prism 5 software.

[4] = system: T47D breast cancer cells; assay: Anti-proliferation assay in T47D cell (Cyquant, day 6); format: cell-based, human; settings: Homo sapiens, T47D, anti-proliferation, T47D cells; read-out: T47D IC50
Excerpt: T47D is a human breast cancer cell line commonly used in biomedical research involving the hormonal expression of cancer cells. T47D cells are distinct from other human breast cancer cells in that their progesterone receptors (PR) are not regulated by estradiol, a hormone that is abundant within the cells themselves. T47D cells have been employed in studies of the effects of progesterone on breast cancer and the corresponding transcriptional regulation caused by introduced drugs. The cells have been noted to be extremely resistant to estrogens and antiestrogens.
T47D breast cancer cells from American Type Culture Collection (ATCC, HTB-133) were plated at 3000 cells/well in 96-well plates, and were incubated in RPMI 1640 medium (Gibco, 31800105) with 10% Fetal Bovine Serum (FBS, Biowest, FB-1058) at 37° C., 5% CO2. After overnight incubation, baseline values were measured of the samples from one plate using Cyquant reagent (Invitrogen, C35011) following manufacturer's recommendations. Cells were incubated with the detection reagent for 1 hour at 37° C., and then the fluorescence was measured with excitation at 485 nm and emission at 535 nm using Spectra Max M5 (Molecular Devices, HD-4HYSG3196). Other plates were dosed with compounds at a ten-point dose concentration from 10 μM to 0.51 nM in a 3-fold dilution scheme. On day 6 after compound addition, Cyquant reagent was added and the fluorescence was measured using Spectra Max M5. The IC50 values of the test compound's anti-proliferation activity were determined from the baseline subtracted viability readout curve using Xlfit5/GraphPad Prism 5 software.

T1 sequence (P11802 whole entry): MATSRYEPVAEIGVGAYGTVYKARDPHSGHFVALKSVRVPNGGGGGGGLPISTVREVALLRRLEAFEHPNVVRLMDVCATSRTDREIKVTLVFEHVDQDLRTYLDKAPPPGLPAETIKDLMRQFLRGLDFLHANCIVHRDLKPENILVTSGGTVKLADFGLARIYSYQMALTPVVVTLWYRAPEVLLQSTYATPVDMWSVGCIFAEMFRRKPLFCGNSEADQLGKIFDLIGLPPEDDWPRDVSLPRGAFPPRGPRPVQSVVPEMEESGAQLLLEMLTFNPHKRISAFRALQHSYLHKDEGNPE
T1 sequence (P24385 whole entry partner): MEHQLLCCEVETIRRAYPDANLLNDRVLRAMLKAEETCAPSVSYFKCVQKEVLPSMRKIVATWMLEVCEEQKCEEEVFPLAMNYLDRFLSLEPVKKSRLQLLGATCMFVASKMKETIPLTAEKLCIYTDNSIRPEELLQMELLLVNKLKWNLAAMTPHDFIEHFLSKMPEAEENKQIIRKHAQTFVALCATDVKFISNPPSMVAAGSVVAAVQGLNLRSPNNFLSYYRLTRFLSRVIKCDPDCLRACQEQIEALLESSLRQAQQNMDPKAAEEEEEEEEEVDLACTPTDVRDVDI
T2 sequence (Q00534 whole entry): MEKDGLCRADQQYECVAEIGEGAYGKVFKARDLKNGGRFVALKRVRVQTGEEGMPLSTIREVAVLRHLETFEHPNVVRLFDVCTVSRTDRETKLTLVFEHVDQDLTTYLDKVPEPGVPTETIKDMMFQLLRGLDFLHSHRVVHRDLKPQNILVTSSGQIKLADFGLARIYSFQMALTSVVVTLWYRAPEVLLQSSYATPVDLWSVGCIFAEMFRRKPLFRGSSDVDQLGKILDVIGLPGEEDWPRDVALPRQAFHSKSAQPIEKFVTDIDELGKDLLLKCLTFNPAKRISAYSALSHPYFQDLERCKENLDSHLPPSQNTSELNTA
T2 sequence (P30281 whole entry partner): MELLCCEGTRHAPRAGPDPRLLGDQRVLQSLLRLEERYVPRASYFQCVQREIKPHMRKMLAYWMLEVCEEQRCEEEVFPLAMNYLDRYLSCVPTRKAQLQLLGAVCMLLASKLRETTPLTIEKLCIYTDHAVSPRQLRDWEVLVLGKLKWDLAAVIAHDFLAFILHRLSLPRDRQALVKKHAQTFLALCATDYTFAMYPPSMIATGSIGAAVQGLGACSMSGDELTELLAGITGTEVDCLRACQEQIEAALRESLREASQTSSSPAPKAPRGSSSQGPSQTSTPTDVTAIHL

Row | SMILES | IC50 ([1]; CDK4/CyclinD1, 200 μM ATP) [nM] | IC50 ([3]; CDK2/CyclinE1, 100 μM ATP) [nM] | IC50 ([2]; CDK6/CyclinD3, 300 μM ATP) [nM] | IC50 [4] [nM] | also measured
1 | C=CC(=O)Nc1cc(Nc2ncc(F)c(-c3ccn4nc(C)c(C)c4c3)n2)c(OC)cc1N(C)CCN(C)C [Compound 10 disclosed in CN109503573A, reference compound] | – | – | – | – | IC50 ([1]; comparative compound): > 10000 nM; IC50 ([2]; comparative compound): > 10000 nM
2 | CCN1CCN(Cc2ccc(Nc3ncc(F)c(-c4cn5c(C(C)C)cnc5c(OC)n4)n3)nc2)CC1 [Synthetic Example 60] | 10 to 100 | – | 100 to 1000 | – | –
3 | COc1nc(-c2nc(Nc3ccc(N4CCN(CCS(C)(=O)=O)CC4=O)cn3)ncc2F)cc2c1nc(C)n2C(C)C [Synthetic Example 121] | < 10 | > 1000 | 10 to 100 | – | –
4 | COc1nc(-c2nc(Nc3ccc(N4CCN(C5CNC5)CC4=O)cn3)ncc2F)cc2c1nc(C)n2C(C)C [Synthetic Example 138] | < 10 | 100 to 1000 | 10 to 100 | – | –
5 | O=C1COCCN1c1ccc(Nc2ncc(F)c(-c3ccn4ncc(C5=CCOCC5)c4c3)n2)nc1 [compound 17] | 10 to 100 | – | 100 to 1000 | – | –
6 | C=C(C)c1cnn2ccc(-c3nc(Nc4ccc(CN5CCN(CC)CC5)cn4)ncc3F)cc12 [compound 19] | 10 to 100 | – | 100 to 1000 | – | –
7 | CCN1CCN(Cc2ccc(Nc3ncc(F)c(-c4ccn5ncc(Br)c5c4)n3)nc2)CC1 [compound 20] | 100 to 1000 | – | > 1000 | – | –
8 | CCN1CCN(Cc2ccc(Nc3ncc(F)c(-c4ccn5ncc(C(C)C)c5c4)n3)nc2)CC1 [compound 22] | < 10 | – | 10 to 100 | – | –
9 | CCN1CCN(Cc2cccc(Nc3ncc(F)c(-c4ccn5ncc(C(C)C)c5c4)n3)n2)CC1 [compound 24] | 100 to 1000 | – | > 1000 | – | –
10 | CC(C)c1cnn2ccc(-c3ccnc(Nc4ccc(N5CCNCC5=O)nc4)n3)cc12 [compound 35] | – | – | 10 to 100 | – | –
11 | CCn1cnc2c(OC)nc(-c3nc(Nc4ccc(N5CCOCC5=O)cn4)ncc3F)cc21 [compound 84] | – | – | – | – | IC50 ([1]; CDK4/CyclinD1): 10 to 100 nM; IC50 ([3]; CDK2/CyclinE1): > 1000 nM; IC50 ([2]; CDK6/CyclinD3): 100 to 1000 nM
12 | COc1nc(-c2nc(Nc3ccc(N4CCOCC4=O)cc3F)ncc2F)cc2c1nc(C)n2C(C)C [compound 92] | – | – | – | – | IC50 ([1]; CDK4/CyclinD1): < 10 nM; IC50 ([3]; CDK2/CyclinE1): 10 to 100 nM; IC50 ([2]; CDK6/CyclinD3): 10 to 100 nM
13 | COc1nc(-c2nc(Nc3ccc(CN4CCN5CCCC5C4)cn3)ncc2F)cc2c1nc(C)n2C(C)C (centres unmarked) [compound 101] | – | – | – | – | IC50 ([1]; CDK4/CyclinD1): 10 to 100 nM; IC50 ([2]; CDK6/CyclinD3): 10 to 100 nM
14 | CC1(N)CCN(c2ccc(Nc3nccc(-c4cc(F)c5c(c4)C4(CCCC4)CO5)n3)nc2)C(=O)C1 (centres unmarked) [compound 260] | < 10 | 10 to 100 | – | < 100 | –

Continued, in another order:

Row | IC50 ([1]; CDK4/CyclinD1, 200 μM ATP) [nM] | IC50 ([3]; CDK2/CyclinE1, 100 μM ATP) [nM] | IC50 ([2]; CDK6/CyclinD3, 300 μM ATP) [nM] | IC50 [4] [nM] | SMILES | also measured
15 | < 10 | 10 to 100 | < 10 | – | CC(C)c1cnn2ccc(-c3ccnc(Nc4ccc(N5CCC(N(C)C)CC5=O)cn4)n3)cc12 (centres unmarked) [Synthetic Example 16] | –
16 | < 10 | 100 to 1000 | 10 to 100 | – | CC(C)N1CCN(c2ccc(Nc3nccc(-c4cc5c(ncn5C(C)C)c(F)n4)n3)nc2)CC1 [Synthetic Example 287] | –
17 | < 10 | 10 to 100 | – | < 100 | CC1(C)COc2c(F)cc(-c3ccnc(Nc4ccc(N5CCCC(N)C5=O)cc4)n3)cc21 (centres unmarked) [compound 263] | –
18 | < 10 | 10 to 100 | – | < 100 | CNC1CCCN(c2ccc(Nc3nccc(-c4cc(F)c5c(c4)C(C)(C)CO5)n3)cc2)C1=O (centres unmarked) [compound 265] | –
19 | < 10 | 100 to 1000 | – | < 100 | CN(C)C1CCCN(c2ccc(Nc3nccc(-c4cc(F)c5c(c4)C(C)(C)CO5)n3)cc2)C1=O (centres unmarked) [compound 266] | –
20 | < 10 | 100 to 1000 | – | < 100 | CC(C)n1cnc2c(F)nc(-c3ccnc(Nc4ccc(N5CCN(C6CC6)CC5)cn4)n3)cc21 [compound 267] | –
21 | < 10 | 10 to 100 | – | < 100 | CC(C)n1cnc2c(F)nc(-c3ccnc(Nc4ccc(N5CCC(N(C)C)C5=O)cc4)n3)cc21 (centres unmarked) [compound 268] | –
22 | < 10 | > 1000 | – | < 100 | Cc1nc2c(F)nc(-c3ccnc(Nc4ccc(N5CCN(C(C)C)CC5)cn4)n3)cc2n1C(C)C [compound 269] | –
23 | < 10 | > 1000 | – | < 100 | CNC1CCCN(c2ccc(Nc3nccc(-c4cc5c(ncn5C(C)C)c(F)n4)n3)nc2)C1=O (centres unmarked) [compound 284] | –
24 | < 10 | 10 to 100 | – | < 100 | CNC1CCCN(c2ccc(Nc3nccc(-c4cc5c(ncn5C(C)C)c(F)n4)n3)cc2)C1=O (centres unmarked) [compound 294] | –
25 | < 10 | < 10 | – | < 100 | Cc1nc2c(F)nc(-c3ccnc(Nc4ccc(N5CCC(N(C)C)CC5=O)cc4)n3)cc2n1C(C)C (centres unmarked) [compound 295] | –
26 | < 10 | 100 to 1000 | – | < 100 | CNC1CCCN(c2ccc(Nc3ncc(C)c(-c4cc5c(ncn5C(C)C)c(F)n4)n3)cc2)C1=O (centres unmarked) [compound 298] | –
27 | < 10 | 100 to 1000 | – | < 100 | CNC1CCCN(c2ccc(Nc3ncc(Cl)c(-c4cc5c(ncn5C(C)C)c(F)n4)n3)cc2)C1=O (centres unmarked) [compound 299] | –
28 | < 10 | > 1000 | – | < 100 | CC(C)n1cnc2c(F)nc(-c3nc(Nc4ccc(N5CCCC(N(C)C)C5=O)cn4)ncc3F)cc21 (centres unmarked) [compound 300] | –
29 | < 10 | 10 to 100 | – | < 100 | CC(C)n1cnc2c(F)nc(-c3ccnc(Nc4ccc(N5CCCC(N(C)C)C5=O)cc4)n3)cc21 (centres unmarked) [compound 304] | –
30 | < 10 | 10 to 100 | – | < 100 | CC(C)n1cnc2c(F)nc(-c3ccnc(Nc4ccc(N5CCCC(N)C5=O)cc4F)n3)cc21 (centres unmarked) [compound 306] | –
31 | < 10 | 100 to 1000 | – | < 100 | CC(C)n1cnc2c(F)nc(-c3ccnc(Nc4ccc(N5CCN(C(C)(C)C)CC5)cn4)n3)cc21 [compound 308] | –
32 | < 10 | 100 to 1000 | – | < 100 | CC(C)n1cnc2c(F)nc(-c3ccnc(Nc4ccc(N5CCN(CCF)CC5)cn4)n3)cc21 [compound 309] | –
33 | – | – | – | < 100 | COc1nc(-c2ccnc(Nc3ccc(N4CCCC(N(C)C)C4=O)cc3)n2)cc2c1ncn2C(C)C (centres unmarked) [compound 311] | IC50 ([1]; CDK4/CyclinD1): < 10 nM; IC50 ([3]; CDK2/CyclinE1): 100 to 1000 nM

Reference: US20220296595A1, “CDK INHIBITORS” (QILU REGOR THERAPEUTICS INC., priority 2019, published 2022)
